Columns and labels:
[1] = test system: indomethacin induced gastric lesions; conditions: cited from earlier work
[2] = test system: indomethacin induced gastric lesions; test: Prevention of indomethacin induced gastric lesions (U.S. Pat. No. 3,988,466, Table 2); type: in vivo; conditions: indomethacin induced gastric lesions (Table 2)
Method: (§1) U.S. Pat. No. 3,988,466 reports that amino acids, particularly, L-glutamine are effective for the prevention or treatment of certain experimental ulcers, induced artificially by stress or pylorus ligation, or chemically by histamine, reserpine, cortisone, or inflammatory agents when given simultaneously. Further, such prevention only occurred when the concomitant dosage of the amino acid, L-glutamine, present was 2-5 g for a dose of aspirin of 0.3-1.0 g or for 25-50 mg of indomethacin, the required dose of L-glutamine was 2 g. […] Glutamine was ineffective in prevention of indomethacin induced gastric lesions at a dose of 15.6 mg/kg (Table 2) which is equivalent to 1.1 g for an human adult (70 kg weight). No use or indication for relief of gastric distress before or after lesion formation was observed, nor could it have been in the animal model used. No use or indication for relief of gastric lesions after lesion formation was disclosed. […] Of the 24 amino acids tried at the pharmaceutically unacceptable level of 750 mg/kg (calculated to be 52.5 g of the amino acid for a 70 kg human dose), all but DL-tryptophan, L-aspartic acid, L-tyrosine, L-cysteine and L-cystine gave more than 50% inhibition of ulcers. The pH of the amino acids was not a factor in ulcer prevention, showing that “the effect of amino acids is different from that of antacids” (Col 6, lines 27-31)

[3] = test system: aspirin induced gastric lesions; test: Prevention of aspirin induced gastric lesions (U.S. Pat. No. 3,988,466, Table 1); type: in vivo; conditions: aspirin induced gastric lesions (Table 1)
Method: as §1

small bowel ulcers = conditions: rats, cited from earlier work; for ulcer healing: glutamine given in a guar gum
[4] = test system: aspirin induced gastric lesions; conditions: cited from earlier work
[5] = test system: gastric reflux (heartburn); test: Example 9: patient with stress-related gastric reflux takes L-lysine confection; type: in vivo, human; conditions: for effect of the patient's earlier treatments on gastric reflux / heartburn: same patient, Nexium 40 mg twice a day

NC(=O)CC[C@H](N)C(=O)O [Glutamine, L-glutamine]
prevention of indomethacin induced gastric lesions ([1]; dose of 15.6 mg/kg): ineffective | minimum effective dose ([1]; indomethacin induced gastric lesions (Table 2)): 31.3 mg/kg | minimum effective dose calculated for a 70 kg human [2]: 2.2 g | minimum effective dose calculated for a 70 kg human [3]: 8.75 g | ulcer healing (small bowel ulcers): no effect | minimum effective dose ([4]; aspirin induced gastric lesions (Table 1)): 125 mg/kg | prevention of aspirin induced gastric lesions ([4]; dose of 62.5 mg/kg): completely ineffective

N=C(N)NCCC[C@H](N)C(=O)O [L-arginine]
decrease in ulcer number (small bowel ulcers; L-arginine together with yeast RNA (antagonistic)): 34% | ulcer healing (small bowel ulcers): somewhat effective

NCCCC[C@H](N)C(=O)O [L-lysine]
time to complete cessation of all symptoms ([5]; 1 gram dose as a carrageenan confection): one | relief of heartburn ([5]; 1 gram dose as a carrageenan confection, patient with gastric reflux due to stress): immediate relief

O=C([O-])[O-].[Ca+2] [calcium carbonate antacids, calcium carbonate, reference compound]
effect of the patient's earlier treatments on gastric reflux / heartburn [5]: ineffective

COc1ccc2nc([S@@+]([O-])Cc3ncc(C)c(OC)c3C)[nH]c2c1 [Nexium, esomeprazole, reference compound]
effect of the patient's earlier treatments on gastric reflux / heartburn [5]: continued heartburn

Source: patent publication US20070202058A1, “Compositions for treating gastric reflux” (priority 2006, published 2007)
